“Also recorded” adds a separate entry of the source. Read-outs that look alike come from different tables or passages of the source.
Key:
ACC-2D6.3 channel = ACC-2D6.3 channel (Caenorhabditis elegans, UniProt Q18812); experiment: cell-based
Excerpt: (§1) For capped cRNA synthesis, cDNAs were subcloned into the pT7N vector, which contains a T7 RNA polymerase promoter, the 5′- and 3′-UTR of Xenopus laevis beta-globin, and an encoded poly(A+) tail (Cary R B, Klymkowsky M W, Evans R M, Domingo A, Dent J A, Backhus L E (1994) Vimentin's tail interacts with actin-containing structures in vivo. J Cell Sci 107:1609-1622.). The pT7NcDNA constructs were linearized with Sal I (ACC-2D6.3) or BamHI (ACC-1G6.4) and transcribed using the MEGAscript Kit (Ambion, Austin, Tex., USA). Synthesized cRNAs were recovered by LiCl precipitation and resuspended in nuclease-free H2O at final concentration of 1 microgram/ml.
(§2) Oocytes were harvested from mature female Xenopus leavis according to standard procedures (Goldin, A. L. (1992) Maintenance of Xenopus laevis and oocyte injection. Methods Enzymol. 207: 266-79.). To remove inner ovarian epithelium, thecal cell layer, and follicular cells, the ovarian pieces were placed in OR-2 solution: 82.5 mM NaCl, 2 mM KCl, 1 mM MgCl2, and 5 mM Hepes (pH 7.5) containing 1 mg/ml type I collagenase (Sigma, St Louis Mo., USA) either for 3 hours at 20° C. with gentle agitation or for 1 hour followed by manual defolliculization. The stage VI defolliculated oocytes were placed in ND96 solution (96 mM NaCl, 2 mM KCl, 1.8 mM CaCl2, 1 mM MgCl2, and 5 mM Hepes, pH7.5). Oocytes were injected with 40 nl of cRNA using the Nanoject system (Drummond Scientific, Broomall, Pa., USA). Injected oocytes were incubated at 20° C. in ND96 supplemented with […] gentamycin and […] pyruvate. Oocytes were allowed to express cRNA for two days before measurements were taken.
(§3) Two-electrode voltage-clamp recordings were performed using the AxoClamp 2B amplifier (Axon Instruments, Foster City, Calif., USA). Microelectrodes were pulled from borosilicate glass capillaries (Word Precision Instruments, Inc., Sarasota, Fla., USA) on the P-97 micropipette puller Sutter Instruments, Novato, Calif., USA). […] Each oocyte was placed in RC-12 recording chamber (Warner Instrument Inc., Hamden, Conn., USA) or a Maltese cross chamber (ALA Scientific Instruments, Westbury, N.Y., USA) and clamped at −80 mV. Data were acquired at 1 kHz using Clampex software (Axon Instruments, Foster City, Calif., USA).
(§4) Dose-response curves for agonists were generated by their applying the agonist in increasing concentrations followed by 3-9 min washes at each concentration. To determine EC50 and Hill coefficient agonist dose response curves were fit using the following equation: f(I)=(Imax[I]^n/(EC50^n+[I]^n))+Imin, where I is the normalized response to agonist at certain concentration, Imax is the maximal response elicited by a saturating concentration of agonist, EC50 is the concentration of agonist inducing half-maximal response, n is the Hill coefficient, and Imin is the normalized response at lowest agonist concentration.
(§5) The mean and standard error of the mean of peak current responses of at least three oocytes per experiment are represented.
(§6) All drugs were obtained from Sigma-Aldrich (St. Louis, Mo. USA) except imidicloprid (IMI) which was provided by Crompton Co. (Guelph, ON, Canada). Drugs were dissolved in ND96 except IMI, which was made as a stock solution in DMSO and diluted to working concentrations in ND96. If required, drug solutions were adjusted to pH 7.5 with either NaOH or HCl. Fresh solutions were prepared before measurements and stored at 4° C. for 1-5 days.

ACC-3D10.5 = experiment: Two-electrode voltage-clamp of Xenopus oocytes injected with ACC-3D10.5 cRNA; assay type: cell-based, C. elegans; conditions: 1 mM
Protocol: (§8) Oocytes were harvested from mature female Xenopus leavis according to standard procedures (Goldin, A. L. (1992) Maintenance of Xenopus laevis and oocyte injection. Methods Enzymol. 207: 266-79.). To remove inner ovarian epithelium, thecal cell layer, and follicular cells, the ovarian pieces were placed in OR-2 solution: 82.5 mM NaCl, 2 mM KCl, 1 mM MgCl2, and 5 mM Hepes (pH 7.5) containing 1 mg/ml type I collagenase (Sigma, St Louis Mo., USA) either for 3 hours at 20° C. with gentle agitation or for 1 hour followed by manual defolliculization. The stage VI defolliculated oocytes were placed in ND96 solution (96 mM NaCl, 2 mM KCl, 1.8 mM CaCl2, 1 mM MgCl2, and 5 mM Hepes, pH7.5). Oocytes were injected with 40 nl of cRNA using the Nanoject system (Drummond Scientific, Broomall, Pa., USA). Injected oocytes were incubated at 20° C. in ND96 supplemented with 100 mg/ml gentamycin and 550 mg/ml pyruvate. Oocytes were allowed to express cRNA for two days before measurements were taken.

ACC-4E9.9 = experiment: Two-electrode voltage-clamp of Xenopus oocytes injected with ACC-4E9.9 cRNA; assay type: cell-based, C. elegans; conditions: 1 mM
Protocol: as §8

ACC-2D6.3+ACC-3D10.5 = assay type: cell-based, C. elegans; conditions: 1 mM
Protocol: as §8

ACC-2D6.3+ACC-4E9.9 = assay type: cell-based, C. elegans; conditions: 1 mM
Protocol: as §8

ACC-2 Y100L = ACC-2 Y100L (Caenorhabditis elegans, UniProt Q18812, Y100L); experiment: Voltage-clamp of Xenopus oocytes expressing ACC-2 mutant Y100L; assay type: cell-based, C. elegans
Protocol: as §3, §4
(§7) These mutations are substitutions of Leu for Tyr at amino acid 100 (Y100L) and Tyr for Phe at amino acid 160 (F160Y).

ACC-2 F160Y = ACC-2 F160Y (Caenorhabditis elegans, UniProt Q18812, F160Y); experiment: Voltage-clamp of Xenopus oocytes expressing ACC-2 mutant F160Y; assay type: cell-based, C. elegans
Protocol: as §3, §4, §7

ACC-1G6.4 channel [1] = target: T1, ACC-1G6.4 channel (Caenorhabditis elegans, UniProt Q21005); experiment: Two-electrode voltage-clamp of Xenopus oocytes expressing ACC-1G6.4 homomeric channel; assay type: cell-based, C. elegans
T1 construct: Agonist: percentage of maximal acetylcholine-elicited response; other: compound at 0.1 mM; Agonist: percentage of maximal acetylcholine-elicited response; other: compound at 0.2 mM; other: compound at 0.4 mM; other: compound at 0.8 mM; Agonist: percentage of maxim
Excerpt: as §1, §2, §3, §4, §5, §6

ACC-1G6.4 channel [2] = test system: T2, ACC-1G6.4 channel; experiment: as above; assay type: cell-based, C. elegans; conditions: one range given for both channels
T2 construct: rows headed: evoked current as % of the maximal ACh-elicited current; other: text; maximal magnitude of ACh-elicited inward current; other: −80 mV
Excerpt: as §1, §2, §3, §4, §5, §6

[3] = EC50 (agonist), oocytes clamped at −80 mV, wild type
[4] = concentration tested in brackets where printed

ACC-2D6.3 channel, sequence (Q18812 whole entry, looked up): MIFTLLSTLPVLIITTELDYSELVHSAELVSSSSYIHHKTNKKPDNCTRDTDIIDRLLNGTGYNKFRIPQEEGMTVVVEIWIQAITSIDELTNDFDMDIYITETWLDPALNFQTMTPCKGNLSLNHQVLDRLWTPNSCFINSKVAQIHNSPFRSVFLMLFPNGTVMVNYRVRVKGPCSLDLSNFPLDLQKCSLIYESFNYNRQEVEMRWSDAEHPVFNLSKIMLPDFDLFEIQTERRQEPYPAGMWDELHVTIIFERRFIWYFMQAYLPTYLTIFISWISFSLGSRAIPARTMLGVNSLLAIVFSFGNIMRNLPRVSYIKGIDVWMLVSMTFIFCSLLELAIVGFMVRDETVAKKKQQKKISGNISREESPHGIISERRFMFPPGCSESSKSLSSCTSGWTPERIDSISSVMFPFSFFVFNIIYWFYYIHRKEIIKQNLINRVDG
T1 sequence (Q21005 whole entry, looked up): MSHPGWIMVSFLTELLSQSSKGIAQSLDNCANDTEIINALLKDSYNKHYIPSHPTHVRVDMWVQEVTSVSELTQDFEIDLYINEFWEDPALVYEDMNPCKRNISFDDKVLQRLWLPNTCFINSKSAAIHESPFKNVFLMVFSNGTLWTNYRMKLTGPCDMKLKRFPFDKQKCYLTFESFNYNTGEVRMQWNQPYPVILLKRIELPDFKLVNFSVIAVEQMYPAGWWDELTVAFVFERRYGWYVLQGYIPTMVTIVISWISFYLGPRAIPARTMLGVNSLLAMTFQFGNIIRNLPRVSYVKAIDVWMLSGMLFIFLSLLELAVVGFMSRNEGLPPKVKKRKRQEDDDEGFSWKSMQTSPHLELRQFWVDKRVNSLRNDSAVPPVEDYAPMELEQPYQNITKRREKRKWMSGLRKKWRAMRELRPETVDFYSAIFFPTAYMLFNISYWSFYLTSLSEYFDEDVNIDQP
ACC-2 F160Y, sequence (Q18812 whole entry F160Y, looked up): as the sequence (Q18812 whole entry, looked up) above, with F160Y counted along it
ACC-2 Y100L, sequence (Q18812 whole entry Y100L, looked up): as the sequence (Q18812 whole entry, looked up) above, with Y100L counted along it

Row | SMILES | estimated Hill coefficient (agonist) (ACC-2D6.3 channel) | EC50 (ACC-2D6.3 channel; [3]) [µM] | EC50 (ACC-2D6.3 channel; EC50, Table 4) [µM] | current response (ACC-3D10.5) | response (in words) (ACC-4E9.9) | current response (ACC-2D6.3+ACC-3D10.5) | response (in words) (ACC-2D6.3+ACC-4E9.9) | EC50 (ACC-2 Y100L) [µM] | EC50 (ACC-2 F160Y) [µM] | estimated Hill coefficient (agonist) (ACC-1G6.4 channel [1]; agonist dose-response) | agonist action (in words) (ACC-1G6.4 channel [1]; [4]) | antagonist action (in words) (ACC-1G6.4 channel [1]; [4]) | EC50 (ACC-1G6.4 channel [1]; oocytes clamped at −80 mV, read-out: EC50 (agonist)) [µM] | evoked current as % of the maximal ACh-elicited current (ACC-1G6.4 channel [2]) | evoked current as % of the maximal ACh-elicited current (ACC-2D6.3 channel) | estimated Hill coefficient (agonist) (ACC-2D6.3 channel; agonist dose-response) | antagonist action (in words) (ACC-2D6.3 channel; [4])
1 | CC(=O)OCC[N+](C)(C)C [ACh, acetylcholine] | 2.64±0.08 | 9.54 ± 0.11 | 9.5 | 10-30 nA | no response | 50-60 nA | did not respond | 351 ± 33 | 44 ± 1.8 |  |  |  |  |  |  |  | 
2 | COC(=O)C1=CCCN(C)C1 [arecoline] |  | 754 ± 22 |  |  |  |  |  |  |  | 1.59±0.09 | agonists; also recorded: strong agonist; also recorded: strongly | did not inhibit the ACh response | 4.7 ± 0.11 | 82-89% | 82-89% | 2.66±0.23 | did not inhibit the ACh response
